Source: patent US20160058895A1, “RADIOLABELED GNRH ANTAGONISTS AS PET IMAGING AGENTS” (OSLO UNIVERSITETSSYKEHUS HF, priority 2013, published 2016)
“Also recorded” adds a separate entry of the source.

How the values were obtained:
[1] = molecular target: T1, human type I GnRH receptor (Homo sapiens, UniProt P30968); test: Radioligand binding, cell membranes expressing human type I GnRH receptor, [125I]Triptorelin; settings: Ki ± SD, n=3; competition with [125I]Triptorelin; read-out: Receptor affinity Ki for the human GnRH receptor
T1 construct: purchased Merck Millipore
T1 sequence (P30968 1-328): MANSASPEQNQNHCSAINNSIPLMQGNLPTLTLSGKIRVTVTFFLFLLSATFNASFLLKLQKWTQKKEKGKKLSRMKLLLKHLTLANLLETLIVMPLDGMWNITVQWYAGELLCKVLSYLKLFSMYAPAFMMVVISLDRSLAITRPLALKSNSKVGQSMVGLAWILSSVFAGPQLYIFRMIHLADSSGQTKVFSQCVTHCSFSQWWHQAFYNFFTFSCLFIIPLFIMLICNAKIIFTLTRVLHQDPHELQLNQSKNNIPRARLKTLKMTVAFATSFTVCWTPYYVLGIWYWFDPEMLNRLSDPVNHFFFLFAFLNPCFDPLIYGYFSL
Method: Radioligand binding studies were performed with 0.18-0.32 nM [^125I]LHRH-[D-Trp^6]
Further, binding curves for of compounds SB-001-RS, SB-002-RS, SB-003-RS, and SB-004-RS for the human GnRH receptor in competition for [^125I]Triptorelin were measured (n=3) (FIG. 3).

[2] = Log D / Log P of pilot compounds, experimentally determined; type: physicochemical; settings: for logP: n-octanol / phosphate-buffered saline, pilot 18F compounds
Method: (§1) PSA was calculated using ChemBioDraw Ultra 12.0; Clog D was experimentally determined; Ki was determined by an in vitro assay in HEK 293 cells expressing rat GnRH receptor (see below); the radiochemical yield with respect to isotope decay was corrected based on the start of synthesis, and radiochemical purity was analyzed by Radio-HPLC.
as §1, with “In Table 1, PSA” for “PSA”, “receptor;” for “receptor (see below);”, “to” for “based on”, “Radio HPLC.” for “Radio-HPLC.”
(§2) During the development of embodiments of the technology provided herein, a competitive binding assay was used to measure the binding affinity to rat GnRH receptor of the two nonradioactive reference ^19F-compounds described above. Radiolabeling was performed from [^18F]fluoride using the corresponding mesylate and chloro-precursors using K[^18F]/K222 complex in DMSO. Log P values and serum stability were investigated and their brain uptake was studied by small animal PET imaging in healthy rats.

[3] = Brain uptake by small animal PET imaging in healthy rats; type: in vivo, rat; settings: for Brain uptake (in words): healthy rats
Text: In particular, PET images (e.g., 90-minute summed PET images) of the brain of a Sprague-Dawley rat injected with an [^18F] compound according to an embodiment of the technology show accumulation of the compound in the central regions of the brain.
as §2

[4] = molecular target: T2, rat GnRH receptor (Rattus norvegicus, UniProt P30969); test: Radioligand binding, membranes of HEK 293 cells expressing rat GnRH receptor, [125I] LH-RH Dtrp6
T2 construct: expressed in transfected cells; host or cells: HEK 293 cells (transient transfection, membranes prepared 48 h later)
T2 sequence (P30969 1-327): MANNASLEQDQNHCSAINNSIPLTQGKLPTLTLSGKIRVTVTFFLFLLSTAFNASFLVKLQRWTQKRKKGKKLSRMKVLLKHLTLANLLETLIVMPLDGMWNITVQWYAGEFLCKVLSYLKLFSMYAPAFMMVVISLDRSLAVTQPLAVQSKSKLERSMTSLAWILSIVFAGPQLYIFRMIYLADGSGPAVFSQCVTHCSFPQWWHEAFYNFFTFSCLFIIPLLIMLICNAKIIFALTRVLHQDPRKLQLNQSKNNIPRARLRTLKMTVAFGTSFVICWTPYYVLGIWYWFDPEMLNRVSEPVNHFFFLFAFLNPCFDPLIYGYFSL
Method: as §1
For the membrane preparation and radioligand binding assays, HEK 293 cells were grown in Dulbecco's modified Eagle's medium with 10% fetal bovine serum, penicillin (100 U/ml), and streptomycin (100 μg/ml), and transiently transfected with rat GnRH receptor using LipofectAMINE 2000 (Invitrogen) according to the manufacturer's protocol. 48 hours later, membranes were prepared and radioligand binding was performed as previously described (see, e.g., Krobert et al (2001) “The cloned human 5-HT7 receptor splice variants: a comparative characterization of their pharmacology, function and distribution” Naunyn Schmiedebergs Arch Pharmacol 363(6): 620-32). Radioligand binding studies were performed with 0.18-0.32 nM [^125I] […]
as §1, with “In Table 1, PSA” for “PSA”, “receptor;” for “receptor (see below);”, “to” for “based on”, “Radio HPLC. […]” for “Radio-HPLC.”

[5] = Stability in rat serum at 37° C., radio-HPLC; type: in vitro ADME; settings: for % Intact 18F-compound, Serum 1 h / % Intact 18F-compound, Serum 2 h: 37° C.
Method: as §2
(§3) Serum and in vivo stability measurements were performed as follows. Approximately 5 MBq of ^18F compounds (e.g., peptides or small molecules) in PBS (50 μL) was added to freshly collected rat serum (0.4 mL) and samples were incubated at 37° C. in Eppendorf tubes. After 1 hour and 2 hours, ice-cold ethanol (400 μL) was added and the mixtures were centrifuged at 13,400 rpm for 10 minutes. The resulting supernatants were diluted with Solvent A and analyzed by radio-HPLC.
(§4) Also, the stabilities of the compounds were measured in rat serum and in vivo in rat blood and urine (Table 2). Table 2 provides the fraction (as a percentage of the initial amount) of compound remaining in serum, blood, or urine as a function of time (e.g., after 1 and 2 hours).

[6] = Octanol/water partition coefficient, PBS (pH 7.4)/n-octanol; type: physicochemical; settings: phosphate-buffered saline (pH 7.4)/n-octanol, n=3
Method: Octanol/water partition coefficients were determined as follows. Approximately 10 kBq of ^18F-compounds in 50 μL PBS were diluted in 450 μL of PBS (pH 7.4) and added to 500 μL of n-octanol in an Eppendorf tube (n=3). After vortexing for 3 minutes, the tubes were centrifuged (10,300 rpm for 6 minutes) and 100 μL aliquots of the PBS and n-octanol phases were carefully transferred to separate tubes. The radioactivity of the samples was counted in a γ-counter.
Log P values were measured in a phosphate-buffered saline (pH 7.4)/n-octanol system.

[7] = In vivo stability in rat blood and urine; settings: for % Intact 18F-compound, Blood 1 h: rat blood; for % Intact 18F-compound, Urine 1 h: rat urine
Method: as §3, §4

Row | SMILES | Ki [1] [nM] | logP [6] | % Intact 18F-compound, Serum 1 h ([5]; rat serum) [%] | % Intact 18F-compound, Serum 2 h ([5]; rat serum) [%] | % Intact 18F-compound, Blood 1 h [7] [%] | % Intact 18F-compound, Urine 1 h [7] [%] | also measured
1 | COc1cc(NCCCF)cc(OC)c1NC(=O)c1ccc(Cc2cc3c(cc2C)CCCC3(C)C)o1 [SB-001-RS, N-(4-((3-fluoropropyl)amino)-2,6-dimethoxyphenyl)-5-((3,8,8-trimethyl-5,6,7,8-tetrahydronaphthalen-2-yl)methyl)furan-2-carboxamide] | 3.7 ± 2.3 |  |  |  |  |  | 
2 | COc1cc(NCCCF)cc(OC)c1NC(=O)c1ccc(Oc2cc3c(cc2C)CCC3(C)C)o1 [SB-002-RS, N-(4-((3-fluoropropyl)amino)-2,6-dimethoxyphenyl)-5-((3,3,6-trimethyl-2,3-dihydro-1H-inden-5-yl)oxy)furan-2-carboxamide] | 1.5 ± 3.9 |  |  |  |  |  | 
3 | COc1cc(OCCF)cc(OC)c1NC(=O)c1ccc(Cc2cc3c(cc2C)CCCC3(C)C)o1 [SB-003-RS, N-(4-(2-fluoroethoxy)-2,6-dimethoxyphenyl)-5-((3,8,8-trimethyl-5,6,7,8-tetrahydronaphthalen-2-yl)methyl)furan-2-carboxamide] | 0.6 ± 0.4 |  |  |  |  |  | 
4 | COc1cc(OCCF)cc(OC)c1NC(=O)c1ccc(Oc2cc3c(cc2C)CCC3(C)C)o1 [SB-004-RS, N-(4-(2-fluoroethoxy)-2,6-dimethoxyphenyl)-5-((3,3,6-trimethyl-2,3-dihydro-1H-inden-5-yl)oxy)furan-2-carboxamide] | 2.1 ± 2.1 |  |  |  |  |  | 
5 | COc1nc(OCC[18F])nc(OC)c1NC(=O)c1ccc(Oc2cc3c(cc2C)CCC3(C)C)o1 [[^18F]SB7-65-18] |  |  |  |  |  |  | logP ([2]; pH 7.4): 1.3; logD ([2]; pH 7.4, experimentally determined, read-out: CLog D (pH 7.4)): 1.22; Brain uptake (in words) [3]: failed to show significant brain uptake; Ki [4]: 1.36 nM; Stability in rat serum ([5]; rat serum, over 2 hours): stable
6 | COc1nc([18F])nc(OC)c1NC(=O)c1ccc(Oc2cc3c(cc2C)CCC3(C)C)o1 [[^18F]SB7-65-19] |  |  |  |  |  |  | CLog D (pH 7.4) ([2]; experimentally determined): 1.33; logP ([2]; pH 7.4): 1.4; Brain uptake (in words) [3]: entered the brain and was clearly visibly by PET; also recorded: significant brain uptake; Brain (CNS) uptake ([3]; rat, at 10 minutes): 0.4 % ID/g; Ki [4]: 42 nM; half-life at 11.1 MBq/mL ([5]; rat, serum, hydrolysis of the amide bond, read-out: Serum stability t1/2): < 30 min
7 | COc1cc(NCCCF)cc(OC)c1NC(=O)c1ccc(Cc2cc3c(cc2C)CCCC3(C)C)o1 [[^18F]SB-001-RS, N-(4-((3-fluoropropyl)amino)-2,6-dimethoxyphenyl)-5-((3,8,8-trimethyl-5,6,7,8-tetrahydronaphthalen-2-yl)methyl)furan-2-carboxamide] |  | 1.43 | >95 | 88.5 | 81 | 94.5 | 
8 | COc1cc(NCCCF)cc(OC)c1NC(=O)c1ccc(Oc2cc3c(cc2C)CCC3(C)C)o1 [[^18F]SB-002-RS, N-(4-((3-fluoropropyl)amino)-2,6-dimethoxyphenyl)-5-((3,3,6-trimethyl-2,3-dihydro-1H-inden-5-yl)oxy)furan-2-carboxamide] |  | 1.49 | 99.1 | 97.5 | 97 | 99 | 
9 | COc1cc(OCCF)cc(OC)c1NC(=O)c1ccc(Cc2cc3c(cc2C)CCCC3(C)C)o1 [[^18F]SB-003-RS, N-(4-(2-fluoroethoxy)-2,6-dimethoxyphenyl)-5-((3,8,8-trimethyl-5,6,7,8-tetrahydronaphthalen-2-yl)methyl)furan-2-carboxamide] |  | 1.68 | >95 | 91.1 | 88.1 | 18.5 | 
10 | COc1cc(OCCF)cc(OC)c1NC(=O)c1ccc(Oc2cc3c(cc2C)CCC3(C)C)o1 [[^18F]SB-004-RS, N-(4-(2-fluoroethoxy)-2,6-dimethoxyphenyl)-5-((3,3,6-trimethyl-2,3-dihydro-1H-inden-5-yl)oxy)furan-2-carboxamide] |  | 1.82 | >95 | 97.3 | 97.5 | 99 | 
